Tests used:
[1] = system: vasculature in the cochlea; settings: in vivo; cited from earlier work
[2] = system: patients with Meniere's disease; settings: two patients with Meniere's disease, with furosemide; cited from earlier work
[3] = system: patients suffering from unilateral Meniere's disease; assay: Randomised, double-masked, placebo-controlled crossover clinical trial with latanoprost in Meniere's disease; assay type: in vivo, human; settings: for vertigo, visual analogue scale: decreasing values reflecting improvement
Experimental: During the priority year, a randomised, double-masked, placebo-controlled clinical trial was performed by the inventors of the present patent application. Nine patients (5 males and 4 females; age 39-65 years) suffering from unilateral Meniere's disease were treated daily for three consecutive days with latanoprost (around 50 micrograms/ml) or placebo adopting a crossover design. Accordingly, each patient was treated with both latanoprost and placebo in random order. Each treatment period lasted for 3 days, and after that the patients were examined at days 5 and 15 from the start of the treatment. Approximately 1 month elapsed between the two treatment periods (washout period). The treatment was given by intratympanic injection (around 0.2-0.8 ml) into the middle ear essentially as described above. Several parameters/symptoms were registered and followed, in particular the following: Pure tone average (decibels), discrimination value (%), tinnitus loudness (decibels), and by using visual analogue scale technique; subjective hearing ability, tinnitus and vertigo. The patients recorded the three last mentioned parameters daily, and the means over the periods 2-5 days and 2-15 days after initiation of treatment with latanoprost and placebo were computed.
Such improvement was never observed during placebo treatment. At day 15 the mean discrimination value after latanoprost treatment was 68.2±7.2%, while it was 52.9±1.5% after placebo treatment, the difference of 29% being statistically significant at the p<0.05 level. Likewise, a statistically significant (p<0.01) improvement in pure tone average value at day 15 was found after latanoprost treatment in comparison to placebo, the values being 58.9±3.6 and 64.3±3.5 decibels, respectively (a lower value representing improvement). Finally, at least seven out of the nine patients experienced less vertigo both during the immediate period (days 2-5) after initiation of the latanoprost treatment as well as during a longer period (days 2-15) after the initiation of the latanoprost treatment. The values on the visual analogue scale (in mm; decreasing values reflecting improvement, i.e. less sensation of vertigo) were as follows: Days 2-5 latanoprost treatment: 22.4±9.1, and placebo treatment: 33.5±10.8 (p<0.05); Days 2-15 latanoprost treatment: 24.2±10.0 and placebo treatment: 34.2±11.4 (p<0.05).

[4] = system: patients suffering from unilateral Meniere's disease; assay: Local (intratympanic) administration of latanoprost to two patients suffering from Meniere's disease; assay type: in vivo, human; parameters: key to Tinnitus (grade): 0 = none; 1 = mild; 2 = moderate; 3 = marked; settings: for Tinnitus (grade): After (7 or 13 days after start of treatment), before: 3; for Acoustic emissions (%) 1 kHz / Acoustic emissions (%) 2 kHz / Acoustic emissions (%) 3 kHz / Acoustic emissions (%) 4 kHz / Acoustic emissions (%) 5 kHz / Acoustic emissions (%) Total reproducibility: After; for Acoustic emissions (%) 1 kHz / Acoustic emissions (%) 2 kHz / Acoustic emissions (%) 3 kHz / Acoustic emissions (%) 4 kHz / Acoustic emissions (%) 5 kHz: before: 0; for Subjective hearing ability: after treatment
Experimental: […] About 0.3-0.4 ml of a sterile Xalatan® (0.005% latanoprost) solution was administered by intratympanic installation in close apposition to the round window after appropriate local anaesthesia. The patients were thereafter asked to lie on the side with the treated ear up for about 30 min to enhance the penetration of latanoprost into the internal ear. The patients had at least 40 decibel decrease in the audiogram at 0.5, 1 and 2 kHz frequency, at baseline before treatment with latanoprost. In addition they suffered from episodes of vertigo and nausea in combination with tinnitus. Audiograms, and cochlear emissions were recorded before the treatment and at the 7th or 13th day after the start of the treatment, and information about the subjective symptoms were collected.

[5] = system: endolymphatic duct structures / inner ear of pigmented guinea pigs; assay: Intratympanic administration of latanoprost to guinea pigs: tolerability, brain stem audiometry and morphology of the endolymphatic duct structures; assay type: in vivo, guinea pig
Experimental: Four pigmented guinea pigs of either sex weighing around 200-300 grams were anaesthetised with pentobarbital for intratympanic (into the middle ear) administration of latanoprost, and for brain stem audiometric measurements. The audiometric measurements were carried out at 8, 16 and 32 kHz frequency before and after the administration of latanoprost (58 μg/ml; a total of 250 μl/injection corresponding to about 14 μg latanoprost) and the vehicle. Latanoprost was administered once daily for three days into one ear, while the other ear received a similar injection of the vehicle only, and on the fourth day the animals were euthanatized with an overdose of the anaesthetic. The middle ears were dissected and the mucus membranes were inspected. Thereafter the inner ear was removed and the labyrinth was perfusion fixated through the oval and round windows with a 3% buffered glutaraldehyde solution. The tissues were then immersion fixated for about 24 hours in the same solution, and decalcified in 0.1 M sodium EDTA solution for about 2 weeks. The tissues were thereafter prepared according to routine techniques for light microscopy, and ultrathin sections of Epon-embedded tissue pieces were cut for transmission electron microscopy.
Most importantly, in several animals clear-cut changes in the morphology around the endolymphatic duct were detected. […] These findings were corroborated by 3 persons. […] Similar effects have previously been seen in the ciliary muscle of the eye after topical treatment with latanoprost and other prostaglandins (Lütjen-Drecoll and Tamm, 1989; Lindsey et al., 1998; Stjernschantz et al., 1998).

[6] = visual analogue scale, latanoprost vs placebo
[7] = two patients, after administration

CCCCC[C@H](O)/C=C/[C@@H]1[C@@H](C/C=C\CCCC(=O)O)[C@@H](O)C[C@H]1O [PGF2α]
effect on the vasculature in the cochlea [1]: no effect

COc1ccc2c(c1)c(CC(=O)O)c(C)n2C(=O)c1ccc(Cl)cc1 [indomethacin]
effect on the discrimination score [2]: block the effect of furosemide

CC(C)OC(=O)CCC/C=C\C[C@@H]1[C@@H](CC[C@@H](O)CCc2ccccc2)[C@H](O)C[C@@H]1O [latanoprost, 13,14-dihydro-17-phenyl-18,19,20-trinor-PGF2α-isopropyl ester]
vertigo, visual analogue scale ([3]; Days 2-5, placebo 33.5±10.8, p<0.05): 22.4±9.1 mm
vertigo, visual analogue scale ([3]; Days 2-15, placebo 34.2±11.4, p<0.05): 24.2±10.0 mm
patients (out of nine) who experienced less vertigo ([3]; both days 2-5 and days 2-15 after initiation of treatment): at least seven
cochlear emissions ([3]; clinical trial): variable results
difference in mean discrimination value versus placebo ([3]; day 15, p<0.05): 29%
mean discrimination value ([3]; day 15, placebo 52.9±1.5%, p<0.05): 68.2±7.2%
pure tone average value ([3]; day 15, placebo 64.3±3.5, p<0.01, lower value representing improvement): 58.9±3.6 decibels
improvement in discrimination value ([3]; in three of the nine patients, after latanoprost treatment): 25-50%
tinnitus loudness ([3]; latanoprost vs placebo): No statistically significant change
Subjective hearing ability [3, 6]: No statistically significant change
subjective experience of tinnitus [3, 6]: No statistically significant change
Tinnitus (grade) ([4]; patient one): 1
Acoustic emissions (%) 1 kHz ([4]; patient one): 45%
Acoustic emissions (%) 2 kHz ([4]; patient one): 0
Acoustic emissions (%) 3 kHz ([4]; patient one): 42%
Acoustic emissions (%) 4 kHz ([4]; patient one): 0
Acoustic emissions (%) 5 kHz ([4]; patient one): 0
Acoustic emissions (%) Total reproducibility ([4]; patient one, before: 5): 37%
Subjective hearing ability ([4]; patient one): Improved
Tinnitus (grade) ([4]; patient two): 2
Acoustic emissions (%) 1 kHz ([4]; patient two): 0%
Acoustic emissions (%) 2 kHz ([4]; patient two): 57%
Acoustic emissions (%) 3 kHz ([4]; patient two): 0%
Acoustic emissions (%) 4 kHz ([4]; patient two): 0%
Acoustic emissions (%) 5 kHz ([4]; patient two): 0%
Acoustic emissions (%) Total reproducibility ([4]; patient two, before: 10): 37%
Subjective hearing ability ([4]; patient two): Improved
audiograms [4, 7]: no significant change
cochlear emissions [4, 7]: significantly improved
patients' condition with respect to the tinnitus and hearing ability [4, 7]: marked improvement
brain stem audiograms ([5]; guinea pig, 8, 16 and 32 kHz, before and after intratympanic administration): no changes that could be attributed to the treatment
morphology around the endolymphatic duct ([5]; guinea pig, in several animals, zone around fibroblasts in loose connective tissue surrounding the duct): reduced density of the extracellular matrix
morphological changes in the cochlea including the organ of Corti with the hair cells ([5]; guinea pig, intratympanic, about 14 μg once daily for three days): no morphological changes
inflammatory changes in the mucous membranes of the middle ear or in the tympanic membrane ([5]; guinea pig, intratympanic, about 14 μg once daily for three days, examined day 4): No inflammatory changes
tolerability ([5]; guinea pig, intratympanic, once daily for three days): well tolerated

From US7498360B2, “Method and compositions for local treatment of Meniere's disease, tinnitus and/or hearing loss” (Synphora AB, priority 2001, dated 2009)
